Each compound was assayed against T1, full-length human PKCι (Homo sapiens, UniProt P41743) (assay: PKCι IC50 IMAP assay, full-length PKCι at 150 μM ATP). Conditions: read-out: IC50 in IMAP assay against full length PKCi at 150 μM ATP.
T1 construct: Recombinant, full-length human PKCι expressed in Sf21 insect cells is also commercially available; purchased; host or cells: Sf21 insect cells
T1 sequence (P41743 1-596): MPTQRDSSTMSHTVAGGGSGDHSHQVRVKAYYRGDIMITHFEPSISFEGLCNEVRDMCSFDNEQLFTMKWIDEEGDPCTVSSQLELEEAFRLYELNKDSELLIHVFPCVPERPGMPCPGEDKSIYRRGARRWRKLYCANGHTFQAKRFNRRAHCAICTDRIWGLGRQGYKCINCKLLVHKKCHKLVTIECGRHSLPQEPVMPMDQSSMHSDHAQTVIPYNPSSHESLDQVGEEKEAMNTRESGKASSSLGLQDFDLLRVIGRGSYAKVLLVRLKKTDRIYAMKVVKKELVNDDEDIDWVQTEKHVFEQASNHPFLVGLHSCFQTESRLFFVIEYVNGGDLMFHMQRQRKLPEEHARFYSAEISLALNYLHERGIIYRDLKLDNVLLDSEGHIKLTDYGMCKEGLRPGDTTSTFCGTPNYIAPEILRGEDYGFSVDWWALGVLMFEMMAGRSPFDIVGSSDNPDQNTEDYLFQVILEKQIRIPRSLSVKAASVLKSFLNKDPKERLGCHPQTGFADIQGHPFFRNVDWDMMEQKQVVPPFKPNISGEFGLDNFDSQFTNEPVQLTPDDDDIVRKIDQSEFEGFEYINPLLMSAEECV
Assay type: biochemical
Summary of the method: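 Dose-response IC50 values come from IMAP fluorescence polarisation after 60 min room-temperature turnover of 100 nM FAM peptide by ~15 pM insect-cell-expressed full-length PKCι at 150 μM ATP (5× KM^APP), normalised to no-compound and no-enzyme controls.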

Compound | IC50 [µM]
O=C1CC(Nc2nc(-c3ccnc(Nc4c(F)cccc4F)c3)nc3cncc(C4CC4)c23)CCN1 (centres unmarked) [Example 2076, 4-{5-Cyclopropyl-2-[2-(2,6-difluoro-phenylamino)-pyridin-4-yl]-pyrido[3,4-d]pyrimidin-4-ylamino}-piperidin-2-one] | 0.1 to 1
Cn1c(C(F)(F)F)cc2c(-c3nc(N[C@@H]4CCNC4)c4c(C5CC5)cncc4n3)ccnc21 [Example 2077, [5-Cyclopropyl-2-(1-methyl-2-trifluoromethyl-1H-pyrrolo[2,3-b]pyridin-4-yl)-pyrido[3,4-d]pyrimidin-4-yl]-(R)-pyrrolidin-3-yl-amine] | 10 to 40
c1ccc2nc(Nc3cc(-c4nc(N5CCNCC5)c5c(C6CC6)cncc5n4)ccn3)ccc2c1 [Example 2078, [4-(5-Cyclopropyl-4-piperazin-1-yl-pyrido[3,4-d]pyrimidin-2-yl)-pyridin-2-yl]-[D4],[D3]uinolin-2-yl-amine] | < 0.1
COCc1cc2c(-c3nc(N4CCNCC4)c4c(C5CCC5)cncc4n3)ccnc2[nH]1 [Example 2080, 5-Cyclobutyl-2-(2-methoxymethyl-1H-pyrrolo[2,3-b]pyridin-4-yl)-4-piperazin-1-yl-pyrido[3,4-d]pyrimidine] | < 0.1
CN1CCC(N(C)c2nc(-c3ccnc4[nH]c(C(F)(F)F)cc34)nc3cncc(C4CC4)c23)CC1 [Example 2081, [5-Cyclopropyl-2-(2-trifluoromethyl-1H-pyrrolo[2,3-b]pyridin-4-yl)-pyrido[3,4-d]pyrimidin-4-yl]-methyl-(1-methyl-piperidin-4-yl)-amine] | < 0.1
CN1CCC(N(C)c2nc(-c3ccnc(Nc4c(F)cccc4F)c3)nc3cncc(C4CC4)c23)CC1 [Example 2083, {5-Cyclopropyl-2-[2-(2,6-difluoro-phenylamino)-pyridin-4-yl]-pyrido[3,4-d]pyrimidin-4-yl}-methyl-(1-methyl-piperidin-4-yl)-amine] | < 0.1
CN1CCC(Nc2nc(-c3ccnc(Nc4c(F)cccc4F)c3)nc3cncc(C4CC4)c23)CC1 [Example 2084, {5-Cyclopropyl-2-[2-(2,6-difluoro-phenylamino)-pyridin-4-yl]-pyrido[3,4-d]pyrimidin-4-yl}-(1-methyl-piperidin-4-yl)-amine] | < 0.1
CC(C)(c1ccccc1)c1cc2c(-c3nc(N4CCNCC4)c4c(C5CC5)cncc4n3)ccnc2[nH]1 [Example 2086, 5-Cyclopropyl-2-[2-(1-methyl-1-phenyl-ethyl)-1H-pyrrolo[2,3-b]pyridin-4-yl]-4-piperazin-1-yl-pyrido[3,4-d]pyrimidine] | < 0.1
Clc1c[nH]c2nccc(-c3nc(N4CCNCC4)c4c(C5CC5)cncc4n3)c12 [Example 2087, 2-(3-Chloro-1H-pyrrolo[2,3-b]pyridin-4-yl)-5-cyclopropyl-4-piperazin-1-yl-pyrido[3,4-d]pyrimidine] | < 0.1
c1ccc2c(c1)[nH]c1nccc(-c3nc(N4CCNCC4)c4c(C5CCC5)cncc4n3)c12 [Example 2090, 4-(5-Cyclobutyl-4-piperazin-1-yl-pyrido[3,4-d]pyrimidin-2-yl)-9H-pyrido[2,3-b]indole] | 0.1 to 1
c1ccc2c(c1)[nH]c1nccc(-c3nc(N4CCNCC4)c4ccncc4n3)c12 [Example 2091, 4-(4-Piperazin-1-yl-pyrido[3,4-d]pyrimidin-2-yl)-9H-pyrido[2,3-b]indole] | < 0.1
Cc1cc2c(-c3nc(N4CCNCC4)c4c(C5CC5)cnc(Cl)c4n3)ccnc2[nH]1 [Example 2092, 8-Chloro-5-cyclopropyl-2-(2-methyl-1H-pyrrolo[2,3-b]pyridin-4-yl)-4-piperazin-1-yl-pyrido[3,4-d]pyrimidine] | < 0.1
CN(c1nc(-c2ccnc(Nc3ncc(F)cc3F)c2)nc2cncc(C3CC3)c12)C1CCNCC1 [Example 2095, {5-Cyclopropyl-2-[2-(3,5-difluoro-pyridin-2-ylamino)-pyridin-4-yl]-pyrido[3,4-d]pyrimidin-4-yl}-methyl-piperidin-4-yl-amine] | < 0.1
CC(=O)N1CCC(N(C)c2nc(-c3ccnc(Nc4c(F)cccc4F)c3)nc3cncc(C4CC4)c23)CC1 [Example 2096, 1-[4-({5-Cyclopropyl-2-[2-(2,6-difluoro-phenylamino)-pyridin-4-yl]-pyrido[3,4-d]pyrimidin-4-yl}-methyl-amino)-piperidin-1-yl]-ethanone] | 0.1 to 1
c1ccc2c(c1)CC[C@@H]2Nc1cc(-c2nc(N3CCNCC3)c3c(C4CC4)cncc3n2)ccn1 [Example 2099, [4-(5-Cyclopropyl-4-piperazin-1-yl-pyrido[3,4-d]pyrimidin-2-yl)-pyridin-2-yl]-(S)-indan-1-yl-amine] | < 0.1
Fc1ncc(C2CC2)c2c(N3CCNCC3)nc(-c3ccnc4[nH]c(C(F)(F)F)cc34)nc12 [Example 2102, 5-Cyclopropyl-8-fluoro-4-piperazin-1-yl-2-(2-trifluoromethyl-1H-pyrrolo[2,3-b]pyridin-4-yl)-pyrido[3,4-d]pyrimidine] | < 0.1

More lines, now with the values ahead:

IC50 [µM] | Compound
< 0.1 | c1ccn2nc(Nc3cc(-c4nc(N5CCNCC5)c5c(C6CC6)cncc5n4)ccn3)cc2c1 [Example 2072, [4-(5-Cyclopropyl-4-piperazin-1-yl-pyrido[3,4-d]pyrimidin-2-yl)-pyridin-2-yl]-pyrazolo[1,5-a]pyridin-2-yl-amine]
< 0.1 | C[C@@H]1CN(c2nc(-c3ccnc(NC4CCN(CC(F)(F)F)CC4)c3)nc3cncc(C4CC4)c23)C[C@H](C)N1 [Example 2073, {4-[5-Cyclopropyl-4-((cis)-3,5-dimethyl-piperazin-1-yl)-pyrido[3,4-d]pyrimidin-2-yl]-pyridin-2-yl}-[1-(2,2,2-trifluoro-ethyl)-piperidin-4-yl]-amine]
< 0.1 | Clc1cc2c(-c3nc(N4CCNCC4)c4c(C5CC5)cncc4n3)ccnc2[nH]1 [Example 2074, 2-(2-Chloro-1H-pyrrolo[2,3-b]pyridin-4-yl)-5-cyclopropyl-4-piperazin-1-yl-pyrido[3,4-d]pyrimidine]
< 0.1 | COCc1cc2c(-c3nc(N4CCNCC4)c4c(C5CC5)cncc4n3)ccnc2[nH]1 [Example 2075, 5-Cyclopropyl-2-(2-methoxymethyl-1H-pyrrolo[2,3-b]pyridin-4-yl)-4-piperazin-1-yl-pyrido[3,4-d]pyrimidine]
< 0.1 | c1cc(-c2nc(N3CCNCC3)c3c(C4CCC4)cncc3n2)c2cc[nH]c2n1 [Example 2082, 5-Cyclobutyl-4-piperazin-1-yl-2-(1H-pyrrolo[2,3-b]pyridin-4-yl)-pyrido[3,4-d]pyrimidine]
0.1 to 1 | CC(=O)N1CCC(Nc2nc(-c3ccnc(Nc4c(F)cccc4F)c3)nc3cncc(C4CC4)c23)CC1 [Example 2085, 1-(4-{5-Cyclopropyl-2-[2-(2,6-difluoro-phenylamino)-pyridin-4-yl]-pyrido[3,4-d]pyrimidin-4-ylamino}-piperidin-1-yl)-ethanone]
< 0.1 | CN(c1nc(-c2ccnc3[nH]c(C(F)(F)F)cc23)nc2cncc(C3CC3)c12)[C@@H]1CCNC1 [Example 2088, [5-Cyclopropyl-2-(2-trifluoromethyl-1H-pyrrolo[2,3-b]pyridin-4-yl)-pyrido[3,4-d]pyrimidin-4-yl]-methyl-(R)-pyrrolidin-3-yl-amine]
< 0.1 | c1ccc2c(Nc3cc(-c4nc(N5CCNCC5)c5c(C6CC6)cncc5n4)ccn3)nccc2c1 [Example 2089, [4-(5-Cyclopropyl-4-piperazin-1-yl-pyrido[3,4-d]pyrimidin-2-yl)-pyridin-2-yl]-iso[D4],[D3]uinolin-1-yl-amine]
< 0.1 | C=Cc1cncc2nc(-c3ccnc(Nc4c(F)cccc4F)c3)nc(N3CCNCC3)c12 [Example 2094, (2,6-Difluoro-phenyl)-[4-(4-piperazin-1-yl-5-vinyl-pyrido[3,4-d]pyrimidin-2-yl)-pyridin-2-yl]-amine]
< 0.1 | c1ccc2c(c1)CC(Nc1cc(-c3nc(N4CCNCC4)c4c(C5CC5)cncc4n3)ccn1)C2 [Example 2097]
< 0.1 | c1ccc2c(c1)CC[C@H]2Nc1cc(-c2nc(N3CCNCC3)c3c(C4CC4)cncc3n2)ccn1 [Example 2098, [4-(5-Cyclopropyl-4-piperazin-1-yl-pyrido[3,4-d]pyrimidin-2-yl)-pyridin-2-yl]-(R)-indan-1-yl-amine]
< 0.1 | Fc1cccc(F)c1Nc1cc(-c2nc(N3CCNCC3)c3c(C4CC4)cnc(Cl)c3n2)ccn1 [Example 2100, [4-(8-Chloro-5-cyclopropyl-4-piperazin-1-yl-pyrido[3,4-d]pyrimidin-2-yl)-pyridin-2-yl]-(2,6-difluoro-phenyl)-amine]
< 0.1 | Fc1cccc(F)c1Nc1cc(-c2nc(N3CCNCC3)c3c(C4CC4)cnc(F)c3n2)ccn1 [Example 2101, [4-(5-Cyclopropyl-8-fluoro-4-piperazin-1-yl-pyrido[3,4-d]pyrimidin-2-yl)-pyridin-2-yl]-(2,6-difluoro-phenyl)-amine]

From US9914730B2, “Azaquinazoline inhibitors of Atypical protein Kinase C” (Ignyta, Inc., priority 2012, dated 2018)
